What was measured:
Format in all cases: in vivo, human
Nrf2 = Nrf2 activity in blood cells in clinical trials; details: at therapeutic doses
Source text: One AIM, bardoxolone methyl (BARD), is in advanced clinical trials for the treatment of chronic kidney disease.

[1] = Phase 2b/3 trial, estimated GFR and CKD stage; details: for patients with improvement in CKD stage: Stage 4 to 3b or 3b to 3a; for Change from baseline eGFR, mean ± SE: longitudinal model
Experimental: Weight measurements were included in the study as a basic clinical parameter. […] Screening estimated GFR was calculated as the mean of two estimated GFR results (differing no more than 25%) collected at least 5 days apart within a 3-week period. […] Exclusion criteria included type 1 diabetes, non-diabetic kidney disease, hemoglobin A1c>10%, QTc […] interval >450 milliseconds, evidence of hepatic dysfunction, and recent cardiovascular disease. […] Study drug was taken orally once daily in the morning one hour prior to food intake. Dose titration occurred as follows: (1) placebo; (2) 25 mg; (3) 25 mg, increased to 75 mg after 4 weeks; and (4) 25 mg, increased to 75 mg after 4 weeks, further increased to 150 mg after an additional 4 weeks. Randomization was stratified by CKD stage (3b versus 4), urinary albumin to creatinine ratio (ACR; ≤ versus >300 mg/g), and glucose control (hemoglobin A1c< versus ≥7%). An independent Data Safety Monitoring Board monitored patient safety. Estimated GFR and routine safety laboratory testing was done at screening and every four weeks thereafter using a central laboratory. Adverse events and clinical laboratory parameters were assessed at each visit. Analysis of the primary outcome, change from baseline estimated GFR at Week 24, occurred after all randomized patients completed Week 24 or previously discontinued study. Exploratory outcomes included change from baseline at Week 24 in serum creatinine, blood urea nitrogen, serum phosphorus, uric acid, ACR, hemoglobin A1c, and intact parathyroid hormone.

[2] = Phase 2b/3 trial, weight over 52 weeks
Experimental: Weight measurements were included in the study as a basic clinical parameter. […] Screening estimated GFR was calculated as the mean of two estimated GFR results (differing no more than 25%) collected at least 5 days apart within a 3-week period. […] Exclusion criteria included type 1 diabetes, non-diabetic kidney disease, hemoglobin A1c>10%, QTc […] interval >450 milliseconds, evidence of hepatic dysfunction, and recent cardiovascular disease. […] Study drug was taken orally once daily in the morning one hour prior to food intake. Dose titration occurred as follows: (1) placebo; (2) 25 mg; (3) 25 mg, increased to 75 mg after 4 weeks; and (4) 25 mg, increased to 75 mg after 4 weeks, further increased to 150 mg after an additional 4 weeks. Randomization was stratified by CKD stage (3b versus 4), urinary albumin to creatinine ratio (ACR; ≤ versus >300 mg/g), and glucose control (hemoglobin A1c< versus ≥7%). An independent Data Safety Monitoring Board monitored patient safety. […] The double-blinded structure of the study was maintained throughout the 52-week period. […] Treatment was discontinued in all groups at week 52 (including the placebo group), and final clinical and laboratory measurements were taken at week 56.

[3] = Week 24, all bardoxolone methyl patients
[4] = 75 mg, Week 56 (treatment discontinued at week 52)
[5] = by week 52, patients treated with bardoxolone methyl

**Q.** What does the source list for `COC(=O)[C@]12CCC(C)(C)C[C@H]1[C@H]1C(=O)C=C3[C@@]4(C)C=C(C#N)C(=O)C(C)(C)[C@@H]4CC[C@@]3(C)[C@]1(C)CC2` [bardoxolone methyl]?
**A.** Nrf2 activity in blood cells (Nrf2): induces Nrf2 activity; patients with improvement in CKD stage ([1]; 25 mg group): 53%; patients with improvement in CKD stage ([1]; 75 mg group): 69%; patients with improvement in CKD stage ([1]; 150 mg group): 61%; estimated GFR, mean increases compared to placebo ([1]; Week 24, 25 mg group): 8.3±1.1 mL/min/1.73 m^2; Change from baseline eGFR, difference between bardoxolone methyl and placebo, mean ± SE ([1]; Week 24, 25 mg vs placebo): 8.2 ± 1.5 mL/min/1.73 m^2; Change from baseline eGFR, mean ± SE ([1]; Week 24, 25 mg): 8.3 ± 1.1 mL/min/1.73 m^2; estimated GFR, mean increases compared to placebo ([1]; Week 24, 75 mg group): 11.5±1.1 mL/min/1.73 m^2; Change from baseline eGFR, difference between bardoxolone methyl and placebo, mean ± SE ([1]; Week 24, 75 mg vs placebo): 11.4 ± 1.5 mL/min/1.73 m^2; Change from baseline eGFR, mean ± SE ([1]; Week 24, 75 mg): 11.5 ± 1.1 mL/min/1.73 m^2; estimated GFR, mean increases compared to placebo ([1]; Week 24, 150 mg group): 10.6±1.1 mL/min/1.73 m^2; Change from baseline eGFR, difference between bardoxolone methyl and placebo, mean ± SE ([1]; Week 24, 150 mg vs placebo): 10.5 ± 1.5 mL/min/1.73 m^2; Change from baseline eGFR, mean ± SE ([1]; Week 24, 150 mg): 10.6 ± 1.1 mL/min/1.73 m^2; patients with more than a 10% increase in estimated GFR [1, 3]: 74%; patients with more than a 50% increase in estimated GFR [1, 3]: 24%; Change from baseline eGFR, difference between bardoxolone methyl and placebo, mean ± SE ([1]; Week 24, combined vs placebo): 10.0 ± 1.3 mL/min/1.73 m^2; time from treatment initiation to observed increases in estimated GFR ([1]; bardoxolone methyl groups): ≤ 4 weeks; time of peak increase in estimated GFR ([1]; bardoxolone methyl groups, stable through Week 24): 12 Week; patients with worsening of CKD stage ([1]; each bardoxolone methyl group (2 patients)): 4%; Change in weight from baseline to Week 52: Decrease >5 kg, patients ([2]; 25 mg, N = 48): 35 (73) n (%); Change in weight from baseline to Week 52: Decrease >10 kg, patients ([2]; 25 mg, N = 48): 16 (33) n (%); Change in weight from baseline to Week 52: Decrease >15 kg, patients ([2]; 25 mg, N = 48): 9 (19) n (%); Change in weight from baseline to Week 52: Decrease within 5 kg, patients ([2]; 25 mg, N = 48): 8 (17) n (%); Change in weight from baseline to Week 52: Increase >5 kg, patients ([2]; 25 mg, N = 48): 0 n (%); Change in weight from baseline to Week 52: Increase within 5 kg, patients ([2]; 25 mg, N = 48): 5 (10) n (%); Change from baseline weight, Mean ([2]; 25 mg, Week 4): -1.4 kg; Change from baseline weight, Mean ([2]; 25 mg, Week 8): -2.7 kg; Change from baseline weight, Mean ([2]; 25 mg, Week 12): -3.9 kg; Change from baseline weight, Mean ([2]; 25 mg, Week 16): -4.3 kg; Change from baseline weight, Mean ([2]; 25 mg, Week 20): -5.0 kg; Change from baseline weight, Mean ([2]; 25 mg, Week 24): -5.9 kg; Change from baseline weight, Mean ([2]; 25 mg, Week 28): -6.3 kg; Change from baseline weight, Mean ([2]; 25 mg, Week 32): -6.7 kg; Change from baseline weight, Mean ([2]; 25 mg, Week 36): -7.4 kg; Change from baseline weight, Mean ([2]; 25 mg, Week 40): -7.9 kg; Change from baseline weight, Mean ([2]; 25 mg, Week 44): -8.2 kg; Change from baseline weight, Mean ([2]; 25 mg, Week 48): -8.8 kg; Change from baseline weight, Mean ([2]; 25 mg, Week 52): -9.3 kg; Change from baseline weight, Mean ([2]; 25 mg, Week 56 (treatment discontinued at week 52)): -7.7 kg; Change in weight from baseline to Week 52: Decrease >5 kg, patients ([2]; 75 mg, N = 48): 32 (67) n (%); Change in weight from baseline to Week 52: Decrease >10 kg, patients ([2]; 75 mg, N = 48): 14 (29) n (%); Change in weight from baseline to Week 52: Decrease >15 kg, patients ([2]; 75 mg, N = 48): 4 (8) n (%); Change in weight from baseline to Week 52: Decrease within 5 kg, patients ([2]; 75 mg, N = 48): 12 (25) n (%); Change in weight from baseline to Week 52: Increase >5 kg, patients ([2]; 75 mg, N = 48): 0 n (%); Change in weight from baseline to Week 52: Increase within 5 kg, patients ([2]; 75 mg, N = 48): 4 (8) n (%); Change from baseline weight, Mean ([2]; 75 mg, Week 4): -1.4 kg; Change from baseline weight, Mean ([2]; 75 mg, Week 8): -2.6 kg; Change from baseline weight, Mean ([2]; 75 mg, Week 12): -3.4 kg; Change from baseline weight, Mean ([2]; 75 mg, Week 16): -4.1 kg; Weight, Mean ([2]; 75 mg, Week 16): 91.7 kg; Change from baseline weight, Mean ([2]; 75 mg, Week 20): -4.4 kg; Weight, Mean ([2]; 75 mg, Week 20): 92.0 kg; Change from baseline weight, Mean ([2]; 75 mg, Week 24): -4.7 kg; Weight, Mean ([2]; 75 mg, Week 24): 91.7 kg; Change from baseline weight, Mean ([2]; 75 mg, Week 28): -5.1 kg; Weight, Mean ([2]; 75 mg, Week 28): 91.8 kg; Change from baseline weight, Mean ([2]; 75 mg, Week 32): -6.2 kg; Weight, Mean ([2]; 75 mg, Week 32): 91.6 kg; Change from baseline weight, Mean ([2]; 75 mg, Week 36): -6.1 kg; Weight, Mean ([2]; 75 mg, Week 36): 91.0 kg; Change from baseline weight, Mean ([2]; 75 mg, Week 40): -6.5 kg; Weight, Mean ([2]; 75 mg, Week 40): 90.6 kg; Change from baseline weight, Mean ([2]; 75 mg, Week 44): -6.9 kg; Weight, Mean ([2]; 75 mg, Week 44): 90.8 kg; Change from baseline weight, Mean ([2]; 75 mg, Week 48): -7.4 kg; Weight, Mean ([2]; 75 mg, Week 48): 90.4 kg; Change from baseline weight, Mean ([2]; 75 mg, Week 52): -7.7 kg; Weight, Mean ([2]; 75 mg, Week 52): 90.0 kg; Change from baseline weight, Mean [2, 4]: -7.6 kg; Weight, Mean [2, 4]: 90.7 kg; Change in weight from baseline to Week 52: Decrease >5 kg, patients ([2]; 150 mg, N = 45): 34 (76) n (%); Change in weight from baseline to Week 52: Decrease >10 kg, patients ([2]; 150 mg, N = 45): 22 (49) n (%); Change in weight from baseline to Week 52: Decrease >15 kg, patients ([2]; 150 mg, N = 45): 12 (27) n (%); Change in weight from baseline to Week 52: Decrease within 5 kg, patients ([2]; 150 mg, N = 45): 8 (18) n (%); Change in weight from baseline to Week 52: Increase >5 kg, patients ([2]; 150 mg, N = 45): 1 (2) n (%); Change in weight from baseline to Week 52: Increase within 5 kg, patients ([2]; 150 mg, N = 45): 2 (4) n (%); Change from baseline weight, Mean ([2]; 150 mg, Week 4): -1.3 kg; Change from baseline weight, Mean ([2]; 150 mg, Week 8): -2.1 kg; Change from baseline weight, Mean ([2]; 150 mg, Week 12): -3.3 kg; Change from baseline weight, Mean ([2]; 150 mg, Week 16): -3.9 kg; Change from baseline weight, Mean ([2]; 150 mg, Week 20): -5.0 kg; Change from baseline weight, Mean ([2]; 150 mg, Week 24): -5.8 kg; Change from baseline weight, Mean ([2]; 150 mg, Week 28): -6.7 kg; Change from baseline weight, Mean ([2]; 150 mg, Week 32): -7.2 kg; Change from baseline weight, Mean ([2]; 150 mg, Week 36): -8.1 kg; Change from baseline weight, Mean ([2]; 150 mg, Week 40): -8.7 kg; Change from baseline weight, Mean ([2]; 150 mg, Week 44): -9.2 kg; Change from baseline weight, Mean ([2]; 150 mg, Week 48): -10 kg; Change from baseline weight, Mean ([2]; 150 mg, Week 52): -10 kg; Change from baseline weight, Mean ([2]; 150 mg, Week 56 (treatment discontinued at week 52)): -9.6 kg; fraction of patients who had lost more than 5 kg [2, 5]: at least two thirds; fraction of patients who had lost more than 10 kg [2, 5]: Approximately one third

— patent publication US10105372B2, “Methods of treating obesity using antioxidant inflammation modulators” (REATA PHARMACEUTICALS, INC., priority 2010, dated 2018)
